Converted amounts (≈) assume the structure as drawn. “And” between values parts separate entries of the source, which are not always exact repeats. Equal values may be shown once. “Also recorded” adds a separate entry of the source. Read-outs that look alike come from different tables or passages of the source.
How the values were obtained:
[1] = biological target: T1, Rlig1-AMP (Homo sapiens, UniProt Q8N999); test: Radioactive RNA ligation assay (hit validation, 10 µM test and IC50 determination); format: biochemical; settings: for inhibition of Rlig1-AMP ligation (urea-PAGE): 10 μM compound; for IC50: n = 3; for percentage inhibition (dose response curve for IC50): replicates I-III; for LogIC50 (best-fit value): log of µM; for Bottom (best-fit value) / Top (best-fit value): log(inhibitor) vs. response, variable slope (four parameters)
T1 construct: made in house; host or cells: E. coli BL21 (DE3), pET15b-Rlig1

[2] = biological target: T2, human DNA ligase 1 (hLig1) (Homo sapiens, UniProt P18858); test: DNA ligation assay with various hLig1 concentration at constant inhibitor concentration; format: biochemical; settings: 30 min 37 °C; for DNA product formation: 10 µM compound, three replicates
T2 construct: made in house; host or cells: E. coli Rosetta BL21 (DE3), pET28a-hLig1

[3] = test system: HEK293 cells; test: Cell viability assay of HEK293 cells treated with inhibitors (CellTiter-Glo); settings: for cytotoxicity (in words): HEK293, 24 h, up to 30 μM; for EC50: HEK293, 24 h compound, highest concentration 30 μM, n = 3; for IC50 (Figure 3D: EC50 values for plot; log(inhibitor) vs. response -- Variable slope (four parameters)) / LogIC50 (log(inhibitor) vs. response -- Variable slope (four parameters)): HEK293 cell viability, fit per plate (3 plates, 4 technical replicates each); for IC50 (Figure 3D: EC50 values for plot; log(inhibitor) vs. response -- Variable slope (four parameters)): highest tested concentration 30 µM; for LogIC50 (log(inhibitor) vs. response -- Variable slope (four parameters)): log of [µM]
[4] = biological target: T1, Rlig1-AMP; test: FRET-based high-throughput screening of inhibitors for Rlig1-AMP; format: biochemical; settings: for Raw data [w Enyzm]: with enzyme; for Raw data [w/o Enzym]: without enzyme
[5] = DMSO; ref MedChemExpress; cited from earlier work
[6] = ref MedChemExpress, cited from earlier work
[7] = ultrasonic/warming, ref MedChemExpress, cited from earlier work
[8] = ref MedChemExpress, cited from earlier work; remark: listed apart in the source
[9] = four-parameter fit, read-out: IC50 (best-fit value)
[10] = radioactive ligation assay, 500 nM Rlig1-AMP, 20 min 37 °C, read-out: IC50
[11] = HTS hits, difference of raw data w/o and w enzyme
[12] = HTS hits, normalized value (npi)

T1 sequence (Q8N999 whole entry): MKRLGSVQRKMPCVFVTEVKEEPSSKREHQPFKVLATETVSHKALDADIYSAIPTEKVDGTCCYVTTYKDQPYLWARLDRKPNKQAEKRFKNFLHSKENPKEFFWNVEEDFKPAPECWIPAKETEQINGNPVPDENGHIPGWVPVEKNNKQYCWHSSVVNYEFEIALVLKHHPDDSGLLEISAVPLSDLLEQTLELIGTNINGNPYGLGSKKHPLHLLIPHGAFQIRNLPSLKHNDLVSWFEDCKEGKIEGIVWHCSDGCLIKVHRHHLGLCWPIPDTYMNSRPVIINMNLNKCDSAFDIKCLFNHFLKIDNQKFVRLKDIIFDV
T2 sequence (P18858 whole entry): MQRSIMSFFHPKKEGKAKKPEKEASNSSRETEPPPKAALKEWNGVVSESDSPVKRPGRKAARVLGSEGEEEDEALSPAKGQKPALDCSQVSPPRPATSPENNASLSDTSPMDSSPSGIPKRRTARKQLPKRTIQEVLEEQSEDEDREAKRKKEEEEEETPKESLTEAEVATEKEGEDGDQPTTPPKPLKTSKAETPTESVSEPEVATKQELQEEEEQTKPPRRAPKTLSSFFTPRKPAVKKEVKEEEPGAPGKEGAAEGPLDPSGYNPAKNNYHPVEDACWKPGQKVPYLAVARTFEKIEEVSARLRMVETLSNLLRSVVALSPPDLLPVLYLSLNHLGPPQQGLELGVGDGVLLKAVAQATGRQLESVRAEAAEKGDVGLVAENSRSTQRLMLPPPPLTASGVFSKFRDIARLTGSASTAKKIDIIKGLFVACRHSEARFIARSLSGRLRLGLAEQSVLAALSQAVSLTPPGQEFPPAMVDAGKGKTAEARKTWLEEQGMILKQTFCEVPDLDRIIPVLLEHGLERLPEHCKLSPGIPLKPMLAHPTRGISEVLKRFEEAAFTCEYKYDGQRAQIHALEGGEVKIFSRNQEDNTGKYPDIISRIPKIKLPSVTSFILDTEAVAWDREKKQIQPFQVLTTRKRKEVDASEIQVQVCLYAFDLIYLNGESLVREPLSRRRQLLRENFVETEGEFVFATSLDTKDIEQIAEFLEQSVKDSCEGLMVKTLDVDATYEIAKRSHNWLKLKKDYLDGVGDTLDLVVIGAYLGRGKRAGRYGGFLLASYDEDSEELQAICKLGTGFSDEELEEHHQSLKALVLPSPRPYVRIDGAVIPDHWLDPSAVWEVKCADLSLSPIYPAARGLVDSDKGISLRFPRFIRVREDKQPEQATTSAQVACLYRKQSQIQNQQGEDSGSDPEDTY

SMILES: Nc1nc(Nc2ccc(NC(=O)c3ccc(Nc4ccnc5ccccc45)cc3)cc2)cc(C(F)(F)F)n1 [Compound 41]
- inhibition of Rlig1-AMP ligation (urea-PAGE) ([1]; 500 nM Rlig1-AMP, 20 min 37 °C): Ligation was inhibited; also recorded: fully inhibited
- HillSlope (best-fit value) ([1]; four-parameter fit): 6.706
- Span (best-fit value) ([1]; four-parameter fit): 91.68
- IC50 [1, 9]: 7.98 µM
- percentage inhibition (dose response curve for IC50) ([1]; log Compound [µM] 0.273001): 1.895 and 15.4708 and 0.5134
- percentage inhibition (dose response curve for IC50) ([1]; log Compound [µM] 0.574031): 11.1208 and 11.2726 and 0
- percentage inhibition (dose response curve for IC50) ([1]; log Compound [µM] 0.875061): 30.9538 and 51.1087 and 45.619
- percentage inhibition (dose response curve for IC50) ([1]; log Compound [µM] 1.17609): 95.8601 and 98.8258 and 95.9476
- percentage inhibition (dose response curve for IC50) ([1]; log Compound [µM] 1.47712): 93.067 and 100 and 99.7336
- percentage inhibition (dose response curve for IC50) ([1]; log Compound [µM] -0.0280287): 9.18 and 3.83 and 4.351
- percentage inhibition (dose response curve for IC50) ([1]; log Compound [µM] -0.329059): 8.319 and 4.077 and 3.842
- percentage inhibition (dose response curve for IC50) ([1]; log Compound [µM] -0.630089): 9.025 and 10.4021 and 1.823
- LogIC50 (best-fit value) ([1]; four-parameter fit): 0.9022
- Bottom (best-fit value) [1]: 6.221
- Top (best-fit value) [1]: 97.9
- IC50 [1, 10]: 7.98 µM
- effect on hLig1 activity (in words) ([2]; 10 μM compound, hLig1 titrated (500 nM to 31.3 nM)): least impact on hLig1 activity
- DNA product formation ([2]; hlig1 0.0315 µM): 32.8195% and 34.8543% and 48.0642%
- DNA product formation ([2]; hlig1 0.0625 µM): 59.0993% and 56.4484% and 66.8349%
- DNA product formation ([2]; hlig1 0.5 µM): 87.3568% and 90.1164% and 79.5057%
- cytotoxicity (in words) [3]: comparatively high cytotoxicity
- EC50 [3]: 5.59 µM
- IC50 (Figure 3D: EC50 values for plot; log(inhibitor) vs. response -- Variable slope (four parameters)) [3]: 5.211 µM and 5.311 µM and 6.697 µM
- LogIC50 (log(inhibitor) vs. response -- Variable slope (four parameters)) [3]: 0.717 and 0.7252 and 0.8259

SMILES: CNc1nccc(Nc2ccc(NC(=O)c3ccc(Nc4ccnc5ccccc45)cc3)cc2)n1 [Compound 42]
- inhibition of Rlig1-AMP ligation (urea-PAGE) ([1]; 500 nM Rlig1-AMP, 20 min 37 °C): Ligation was inhibited; also recorded: fully inhibited
- HillSlope (best-fit value) ([1]; four-parameter fit): 5.584
- Span (best-fit value) ([1]; four-parameter fit): 91.59
- IC50 [1, 9]: 3.29 µM
- percentage inhibition (dose response curve for IC50) ([1]; log Compound [µM] 0.273001): 16.0159 and 7.852 and 10.1751
- percentage inhibition (dose response curve for IC50) ([1]; log Compound [µM] 0.574031): 79.3655 and 83.1907 and 44.7582
- percentage inhibition (dose response curve for IC50) ([1]; log Compound [µM] 0.875061): 100 and 98.6279 and 97.3725
- percentage inhibition (dose response curve for IC50) ([1]; log Compound [µM] 1.17609): 100 (2×) and 92.704
- percentage inhibition (dose response curve for IC50) ([1]; log Compound [µM] 1.47712): 100
- percentage inhibition (dose response curve for IC50) ([1]; log Compound [µM] -0.0280287): 9.717 and 4.5039 and 9.184
- percentage inhibition (dose response curve for IC50) ([1]; log Compound [µM] -0.329059): 6.426 and 0 and 5.66
- percentage inhibition (dose response curve for IC50) ([1]; log Compound [µM] -0.630089): 11.6754 and 8.294 and 11.6155
- LogIC50 (best-fit value) ([1]; four-parameter fit): 0.5177
- Bottom (best-fit value) [1]: 7.458
- Top (best-fit value) [1]: 99.05
- IC50 [1, 10]: 3.29 µM
- DNA product formation ([2]; hlig1 0.0315 µM): 8.9605% and 14.7712% and 28.5706%
- DNA product formation ([2]; hlig1 0.0625 µM): 20.859% and 38.2979% and 41.6376%
- DNA product formation ([2]; hlig1 0.5 µM): 72.119% and 74.3311% and 77.4812%
- cytotoxicity (in words) [3]: comparatively high cytotoxicity
- EC50 [3]: 3.51 µM
- IC50 (Figure 3D: EC50 values for plot; log(inhibitor) vs. response -- Variable slope (four parameters)) [3]: 3.237 µM and 3.382 µM and 4.036 µM
- LogIC50 (log(inhibitor) vs. response -- Variable slope (four parameters)) [3]: 0.5101 and 0.5292 and 0.6059

SMILES: Cc1cnc(NCCCN(C)C)c2c1[nH]c1ccc3cc(O)ccc3c12 [Intoplicine]
- 1-D Distance ([4]; HTS hits, difference of raw data without and with enzyme): 1659
- Raw data [w Enyzm] ([4]; HTS hits): 6875
- Raw data [w/o Enzym] ([4]; HTS hits): 8534
- solubility [5]: 80 mg/mL and 229.59 mM

SMILES: O=C1c2ccccc2-c2nc3nnnn3nc21.O=C1c2ccccc2-c2nn3nnnc3nc21 [KP372-1]
- 1-D Distance [4, 11]: 385
- 1-D Distance.npi [4, 12]: 99.8878
- Raw data [w Enyzm] ([4]; HTS hits): 14308
- Raw data [w/o Enzym] ([4]; HTS hits): 13923
- solubility ([6]; DMSO): 17.86 mg/mL and 39.83 mM

SMILES: CCn1c(=O)/c(=C2\Sc3ccccc3N2C)s/c1=C\c1cccc[n+]1CC.[Cl-] [MKT-077]
- 1-D Distance [4, 11]: 170
- 1-D Distance.npi [4, 12]: 104.232
- Raw data [w Enyzm] ([4]; HTS hits): 657
- Raw data [w/o Enzym] ([4]; HTS hits): 827
- solubility ([6]; DMSO): 56.67 mg/mL and 131.18 mM
- solubility ([6]; H2O): < 0.1 mg/mL

SMILES: O=C1c2ccccc2C(=O)c2c1cc(S(=O)(=O)Nc1ccc(C(F)(F)F)cc1)c(O)c2O [PGMI-004A]
- 1-D Distance [4, 11]: 1480
- 1-D Distance.npi [4, 12]: 78.7935
- Raw data [w Enyzm] ([4]; HTS hits): 2222
- solubility ([6]; DMSO): ≥ 125 mg/mL and ≥ 269.76 mM

SMILES: Cc1[nH]c(/C=C2\C(=O)Nc3ccc(S(=O)(=O)Cc4c(Cl)cccc4Cl)cc32)c(C)c1C(=O)N1CCC[C@@H]1CN1CCCC1 [PHA-665752]
- 1-D Distance [4, 11]: 1429
- Raw data [w Enyzm] ([4]; HTS hits): 5362
- solubility ([6]; DMSO): 50 mg/mL and 77.93 mM

SMILES: COc1cccc2c1C(=O)c1c(O)c3c(c(O)c1C2=O)C[C@@](O)(C(=O)CO)C[C@@H]3O[C@H]1C[C@H](N)[C@H](O[C@@H]2CCCCO2)[C@H](C)O1.Cl [Pirarubicin (Hydrochloride)]
- 1-D Distance [4, 11]: 1020
- 1-D Distance.npi ([4]; HTS hits, normalised value of 1-D Distance): 86.4182
- Raw data [w Enyzm] ([4]; HTS hits): 2238
- Raw data [w/o Enzym] ([4]; HTS hits): 3258
- solubility, DMSO ([7]; DMSO): 20.83 mg/mL and 31.37 mM
- solubility, H2O ([7]; H2O): < 100 µg/mL

SMILES: CO[C@H]1/C=C/O[C@@]2(C)Oc3c(C)c(O)c4c(O)c(c(/C=N/N5CCN(C)CC5)c(O)c4c3C2=O)NC(=O)/C(C)=C\C=C\[C@H](C)[C@H](O)[C@@H](C)[C@@H](O)[C@@H](C)[C@H](OC(C)=O)[C@@H]1C [Rifampicin]
- 1-D Distance ([4]; sheet HTS hits, difference of raw data w/o and w enzyme): 268
- Raw data [w Enyzm] ([4]; sheet HTS hits): 2212
- Raw data [w/o Enzym] ([4]; sheet HTS hits): 2480
- solubility, DMSO ([8]; in DMSO): 50000 µg/mL (≈ 60.8 mM)
- solubility, H2O ([8]; in H2O): 1000 µg/mL (≈ 1.22 mM)

Source: PMC11747885, “Potent inhibitors of the human RNA ligase Rlig1 highlights its role in RNA integrity maintenance under oxidative cellular stress” (Chemical Science, 2025)
